The test system of one data set is HT29. The data set is described as follows: MTT cell growth inhibition: HT29. In kind it is cell-based. Conditions: 72 h; for inhibition at 25 µM: Homo sapiens, HT-29, HT29 colon carcinoma, read-out: Percentage (%) Cell Growth Inhibition in response to 25 µM of Drug; for Percentage (%) Cell Growth Inhibition in response to 25 µM of Drug: HT29 colon carcinoma. On the procedure:
(§1) All test agents were prepared as stock solutions (20 mM) in dimethyl sulfoxide (DMSO) and stored at −20 °C. Cell lines used in the study included HT29 (colorectal carcinoma); U87, SJ-G2, (glioblastoma); MCF-7, (breast carcinoma); A2780 (ovarian carcinoma); H460 (lung carcinoma); A431 (skin carcinoma); Du145 (prostate carcinoma); BE2-C (neuroblastoma); MiaPaCa-2 (pancreatic carcinoma); and SMA560 (spontaneous murine astrocytoma), together with the one non-tumour-derived normal breast cell line (MCF10A). All cell lines were incubated in a humidified atmosphere 5% CO2 at 37 °C. The cancer cell lines were maintained in Dulbecco’s modified Eagle’s medium (DMEM; Sigma, Australia) supplemented with foetal bovine serum (10%), sodium pyruvate (10 mM), penicillin (100 IUmL^−1), streptomycin (100 µg mL^−1) and L-glutamine (2 mM).
(§2) Growth inhibition was determined by plating cells in duplicate in medium (100 µL) at a density of 2500–4000 cells per well in 96-well plates. On day 0 (24 h after plating), when the cells were in logarithmic growth, medium (100 µL) with or without the test agent was added to each well. After 72 h drug exposure, growth inhibitory effects were evaluated using the MTT (3-(4,5-dimethyltiazol-2-yl)-2,5-diphenyltetrazolium bromide) assay and absorbance read at 540 nm. The percentage growth inhibition was calculated at a fixed concentration of 25 µM, based on the difference between the optical density values on day 0 and those at the end of drug exposure. Each data point is the mean ± the standard error of the mean (SEM) calculated from three replicates which were performed on separate occasions and separate cell line passages.

The next data set addresses T1, yeast α-glucosidase (Saccharomyces cerevisiae, UniProt P53341).
T1 construct: purchased Sigma
The data set is described as follows: Glycosidase inhibition, laboratory 1: yeast α-glucosidase. It counts as biochemical. Conditions: methanol. The source says: The enzymes α-glucosidase (from yeast), β-glucosidases (from almond and bovine liver), α-galactosidase (from coffee beans), β-galactosidase (from bovine liver), α-mannosidase (from Jack bean), β-mannosidase (from snail), α-L-rhamnosidase (from Penicillium decumbens), α-L-fucosidase (from bovine kidney), trehalase (from porcine kidney), β-glucuronidases (from E. coli and bovine liver), amyloglucosidase (from A. niger), para-nitrophenyl glycosides, and various disaccharides were purchased from Sigma-Aldrich Co (St Louis, MO, USA).
Brush border membranes were prepared from the rat small intestine according to the method of Kessler et al. and were assayed at pH 6.8 for rat intestinal maltase using maltose. For rat intestinal maltase, porcine kidney trehalase, and A. niger amyloglucosidase activities, the reaction mixture contained 25 mM maltose and the appropriate amount of enzyme, and the incubations were performed for 10–30 min at 37 °C. The reaction was stopped by heating at 100 °C for 3 min. After centrifugation (600× g; 10 min), the resulting reaction mixture was added to the Glucose CII-test Wako (Wako Pure Chemical Ind., Osaka, Japan). The absorbance at 505 nm was measured to determine the amount of the released D-glucose. Other glycosidase activities were determined using an appropriate para-nitrophenyl glycoside as substrate at the optimum pH of each enzyme. The reaction mixture contained 2 mM of the substrate and the appropriate amount of enzyme. The reaction was stopped by addition of 400 mM Na2CO3. The released para-nitrophenol was measured spectrometrically at 400 nm. All reactions run in methanol.

A further data set has as its system MCF10A. The data set is described as follows: MTT cell growth inhibition: MCF10A normal breast. In kind it is cell-based. The conditions noted are these: 72 h; for inhibition at 25 µM: Homo sapiens, MCF-10A, read-out: Percentage (%) Cell Growth Inhibition in response to 25 µM of Drug; for Percentage (%) Cell Growth Inhibition in response to 25 µM of Drug: MCF10A breast (normal), MTT. On the procedure: as §1
The non-cancer MCF10A cell line was maintained in DMEM:F12 (1:1) cell culture media, 5% heat-inactivated horse serum, supplemented with penicillin (50 IUmL^−1), streptomycin (50 µg mL^−1), HEPES (20 mM), L-glutamine (2 mM), epidermal growth factor (20 ng mL^−1), hydrocortisone (500 ng mL^−1), cholera toxin (100 ng mL^−1) and insulin ([…]).
as §2

A short description of data set [1]: Appearance of the 1 mg/mL aqueous solution tested. The conditions noted are these: 1 mg/mL in water. In kind it is physicochemical.

A value given as a limit tells only on which side of the number the result lay.

The inhibition is the drop in the measured response relative to a control, in per cent.

T1 sequence (P53341 whole entry): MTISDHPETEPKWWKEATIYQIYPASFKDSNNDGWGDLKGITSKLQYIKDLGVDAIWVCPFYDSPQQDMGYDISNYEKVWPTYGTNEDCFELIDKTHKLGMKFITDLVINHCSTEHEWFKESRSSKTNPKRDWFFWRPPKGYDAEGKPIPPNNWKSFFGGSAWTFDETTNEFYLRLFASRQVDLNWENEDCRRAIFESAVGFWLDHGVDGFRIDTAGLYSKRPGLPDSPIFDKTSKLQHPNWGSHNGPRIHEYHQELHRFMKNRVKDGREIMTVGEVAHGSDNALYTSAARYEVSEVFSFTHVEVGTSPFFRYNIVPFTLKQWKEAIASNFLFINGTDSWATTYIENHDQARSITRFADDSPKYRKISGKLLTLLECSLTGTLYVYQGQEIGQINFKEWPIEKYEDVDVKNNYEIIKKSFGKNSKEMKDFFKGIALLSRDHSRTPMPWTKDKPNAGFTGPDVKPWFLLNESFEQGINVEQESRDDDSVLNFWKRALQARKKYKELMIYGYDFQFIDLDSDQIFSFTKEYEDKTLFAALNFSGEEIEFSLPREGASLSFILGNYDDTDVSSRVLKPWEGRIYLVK

Consider `CC1(C)OB(c2cccc(CN3C(=O)c4c(Cl)c(Cl)c(Cl)c(Cl)c4C3=O)c2)OC1(C)C` [meta 3, 4,5,6,7-Tetrachloro-2-(3-(4,4,5,5-tetramethyl-1,3,2-dioxaborolan-2-yl)benzyl)isoindoline-1,3-dione], for which the figures for the inhibition at 25 µM with HT29 and in the data set on MCF10A were 53 ± 3% and 69 ± 7%, respectively. Moreover, on yeast α-glucosidase, the inhibition at 10 µM was 0%. The “Appearance of the 1 mg/mL Aqueous Solution Tested” value (shortened to “Appearance”) in data set [1] is “opaque suspension”.
As for `CC1(C)OB(c2cccc(NC(=O)c3cc(Cl)c(Cl)c(Cl)c3Cl)c2)OC1(C)C` [meta 5, 2,3,4,5-tetrachloro-N-(3-(4,4,5,5-tetramethyl-1,3,2-dioxaborolan-2-yl)phenyl)benzamide], the values for the inhibition at 25 µM in the data set with HT29 and with MCF10A were 10 ± 7% and < 0%, respectively. At yeast α-glucosidase (100 μM), testing at 100 µM gave an inhibition of 12.8%. In addition, the “Appearance” value in data set [1] was “some in solution with undissolved sediment”.
Take `CC1(C)OB(c2ccccc2CNC(=O)c2cc(Cl)c(Cl)c(Cl)c2Cl)OC1(C)C` [ortho 8, 2,3,4,5-tetrachloro-N-(2-(4,4,5,5-tetramethyl-1,3,2-dioxaborolan-2-yl)benzyl)benzamide]: the inhibition at 25 µM is 5 ± 10% in the data set on HT29 and < 0% with MCF10A. The same compound registered an inhibition at 100 µM at yeast α-glucosidase (100 μM) of 0%. The “Appearance” value in data set [1] is reported as “some in solution with undissolved sediment”.
For `CC1(C)OB(c2ccccc2NC(=O)c2cc(Cl)c(Cl)c(Cl)c2Cl)OC1(C)C` [ortho 5, 2,3,4,5-Tetrachloro-N-(2-(4,4,5,5-tetramethyl-1,3,2-dioxaborolan-2-yl)phenyl)benzamide], the results for the inhibition at 25 µM in the data set on HT29 and in the data set with MCF10A were 98 ± 2% and 58 ± 9%, respectively. Also, the inhibition at 10 µM at yeast α-glucosidase was found to be 0%. Further, the “Appearance” value in data set [1] is “some in solution with undissolved sediment”.
For the compound `CC1(C)OB(c2ccc(CN3C(=O)c4c(Cl)c(Cl)c(Cl)c(Cl)c4C3=O)cc2)OC1(C)C` [para 3, 4,5,6,7-Tetrachloro-2-(4-(4,4,5,5-tetramethyl-1,3,2-dioxaborolan-2-yl)benzyl)isoindoline-1,3-dione], the inhibition at 25 µM with HT29 was 99 ± 2%; with MCF10A, > 100%. This compound also gave an inhibition at 100 µM on yeast α-glucosidase (100 μM) of 0%. Moreover, the “Appearance” value in data set [1] is given as “some in solution with undissolved sediment”.
As to `N[C@@H](Cc1ccc(B(O)O)cc1)C(=O)O` [BPA, 4-borono-L-phenylalanine, reference compound], the inhibition at 25 µM in the data set with HT29 worked out at 14%; in the data set with MCF10A, 4 ± 1%. Moreover, the “Appearance” value in data set [1] is “some in solution with undissolved sediment”.
On to `N[C@@H](Cc1ccc(B(O)O)cc1)C(=O)O` [^10B-BPA, reference compound], for which the “Percentage (%) Cell Growth Inhibition in response to 25 µM of Drug” value is 15 ± 4% with HT29 and <0% in the data set on MCF10A. For the same compound, at yeast α-glucosidase (100 μM), the “inhibition % at 100 μM” value is “^cNI ^d (0%)”. For the same compound, in data set [1], the “Appearance” value is “some in solution with undissolved sediment”.
Consider “Borocaptate sodium [BSH, reference compound]”, for which the “Percentage (%) Cell Growth Inhibition in response to 25 µM of Drug” value was found to be 3 ± 2% with HT29 and 8 ± 3% with MCF10A. The “inhibition % at 1000 μM” value on yeast α-glucosidase (1000 μM) was “^aNI ^b(6.9%)”. Also, the “Appearance” value in data set [1] is recorded as “in solution”.
Consider `CC1(C)OB(c2ccc(NC(=O)c3cc(Cl)c(Cl)c(Cl)c3Cl)cc2)OC1(C)C` [para 5, 2,3,4,5-tetrachloro-N-(4-(4,4,5,5-tetramethyl-1,3,2-dioxaborolan-2-yl)phenyl)benzamide], for which the inhibition at 25 µM was 69 ± 7% in the data set with HT29 and 2 ± 11% in the data set on MCF10A. The same compound had an inhibition at 100 µM against yeast α-glucosidase (100 μM) of 0%. Further, in data set [1], the “Appearance” value is “some in solution with undissolved sediment”.

The record behind these values is PMC9182199, “Borylated 2,3,4,5-Tetrachlorophthalimide and Their 2,3,4,5-Tetrachlorobenzamide Analogues: Synthesis, Their Glycosidase Inhibition and Anticancer Properties in View to Boron Neutron Capture Therapy” (Molecules, 2022).
